Source: patent US8952024B2, “Herbicidal pyrimidone derivatives” (E I du Pont de Nemours and Company, priority 2009, dated 2015)

Columns and labels:
Experiment in all cases: Test B pre-/postemergence plant response
Format in all cases: in vivo
[1] = tested on: downy bromegrass (Bromus tectorum)
Procedure, shortened: (§1)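 Ratings reflect visual comparison with untreated controls 13 to 15 days after application, from 0 (no effect) to 100 (complete control). Application was preemergence to seeded loam/sand soil or postemergence to 1- to 4-leaf plants, with compound in a non-phytotoxic, surfactant-containing solvent.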

[2] = tested on: pigweed (Amaranthus retroflexus)
Procedure, shortened: as §1

kochia (Kochia scoparia) = tested on: kochia (Kochia scoparia)
Procedure, shortened: as §1

[3] = tested on: johnsongrass (Sorghum halepense)
Procedure, shortened: as §1

[4] = tested on: blackgrass (Alopecurus myosuroides)
Procedure, shortened: as §1

[5] = tested on: wheat (Triticum aestivum)
Procedure, shortened: as §1

[6] = tested on: lambsquarters (Chenopodium album)
Procedure, shortened: as §1

wild oat (Avena fatua) = tested on: wild oat (Avena fatua)
Procedure, shortened: as §1

[7] = tested on: Italian ryegrass (Lolium multiflorum)
Procedure, shortened: as §1

corn (Zea mays) = tested on: corn (Zea mays)
Procedure, shortened: as §1

[8] = tested on: Surinam grass (Brachiaria decumbens)
Procedure, shortened: as §1

[9] = tested on: woolly cupgrass (Eriochloa villosa)
Procedure, shortened: as §1

[10] = tested on: goosegrass (Eleusine indica)
Procedure, shortened: as §1

[11] = tested on: yellow nutsedge (Cyperus esculentus)
Procedure, shortened: as §1

soybean (Glycine max) = tested on: soybean (Glycine max)
Procedure, shortened: as §1

[12] = tested on: large crabgrass (Digitaria sanguinalis)
Procedure, shortened: as §1

[13] = tested on: ragweed (common ragweed, Ambrosia elatior)
Procedure, shortened: as §1

[14] = tested on: velvetleaf (Abutilon theophrasti)
Procedure, shortened: as §1

[15] = 31 g ai/ha, postemergence, scale 0 to 100, 0 is no effect, 100 is complete control
[16] = 62 g ai/ha, postemergence, 0 is no effect, 100 is complete control, 13 to 15 days
[17] = 250 g ai/ha, Preemergence, 0 to 100 scale
[18] = Postemergence, 125 g ai/ha, visual rating after 13 to 15 days, scale 0 (no effect) to 100 (complete control)
[19] = Postemergence, 250 g ai/ha, scale 0 to 100 (0 no effect, 100 complete control)
[20] = Preemergence, 31 g ai/ha, scale 0 to 100 (0 no effect, 100 complete control)
[21] = Preemergence, 62 g ai/ha, scale 0 to 100, 0 no effect, 100 complete control
[22] = Preemergence, 125 g ai/ha, scale 0 to 100, 0 no effect, 100 complete control

CCCc1ncc(C(=O)C2=C(O)CCCC2=O)c(=O)n1CCC [Compound 72]
Plant response rating, Bromegrass, Downy [1, 15]: 0 | Bromegrass, Downy plant response rating (0 to 100 scale) [1, 16]: 0 | Plant response rating, Bromegrass, Downy [1, 17]: 0 | Plant response rating, Bromegrass, Downy [1, 18]: 0 | Plant response rating, Bromegrass, Downy [1, 19]: 20 | Plant response rating, Bromegrass, Downy [1, 20]: 0 | Plant response rating, Bromegrass, Downy [1, 21]: 0 | Plant response rating, Bromegrass, Downy [1, 22]: 0 | Plant response rating, Pigweed [2, 15]: 80 | Pigweed plant response rating (0 to 100 scale) [2, 16]: 100 | Plant response rating, Pigweed [2, 18]: 100 | Plant response rating, Pigweed [2, 19]: 100 | Plant response rating, Pigweed [2, 20]: 98 | Plant response rating, Pigweed [2, 21]: 98 | Plant response rating, Pigweed [2, 22]: 100 | Plant response rating, Kochia (kochia (Kochia scoparia); [15]): 75 | Kochia plant response rating (0 to 100 scale) (kochia (Kochia scoparia); [16]): 85 | Plant response rating, Kochia (kochia (Kochia scoparia); [17]): 85 | Plant response rating, Kochia (kochia (Kochia scoparia); [18]): 90 | Plant response rating, Kochia (kochia (Kochia scoparia); [19]): 90 | Plant response rating, Kochia (kochia (Kochia scoparia); [20]): 45 | Plant response rating, Kochia (kochia (Kochia scoparia); [21]): 75 | Plant response rating, Kochia (kochia (Kochia scoparia); [22]): 85 | Plant response rating, Johnsongrass [3, 15]: 0 | Johnsongrass plant response rating (0 to 100 scale) [3, 16]: 10 | Plant response rating, Johnsongrass [3, 17]: 10 | Plant response rating, Johnsongrass [3, 18]: 40 | Plant response rating, Johnsongrass [3, 19]: 45 | Plant response rating, Johnsongrass [3, 20]: 0 | Plant response rating, Johnsongrass [3, 21]: 0 | Plant response rating, Johnsongrass [3, 22]: 0 | Plant response rating, Blackgrass [4, 15]: 0 | Blackgrass plant response rating (0 to 100 scale) [4, 16]: 0 | Plant response rating, Blackgrass [4, 17]: 5 | Plant response rating, Blackgrass [4, 18]: 0 | Plant response rating, Blackgrass [4, 19]: 0 | Plant response rating, Blackgrass [4, 20]: 0 | Plant response rating, Blackgrass [4, 21]: 0 | Plant response rating, Blackgrass [4, 22]: 0 | Plant response rating, Wheat [5, 15]: 0 | Wheat plant response rating (0 to 100 scale) [5, 16]: 5 | Plant response rating, Wheat [5, 18]: 10 | Plant response rating, Wheat [5, 19]: 10 | Plant response rating, Wheat [5, 20]: 0 | Plant response rating, Wheat [5, 21]: 0 | Plant response rating, Wheat [5, 22]: 0 | Plant response rating, Lambsquarters [6, 15]: 90 | Lambsquarters plant response rating (0 to 100 scale) [6, 16]: 100 | Plant response rating, Lambsquarters [6, 17]: 100 | Plant response rating, Lambsquarters [6, 18]: 100 | Plant response rating, Lambsquarters [6, 19]: 100 | Plant response rating, Lambsquarters [6, 20]: 98 | Plant response rating, Lambsquarters [6, 21]: 98 | Plant response rating, Lambsquarters [6, 22]: 98 | Plant response rating, Oat, Wild (wild oat (Avena fatua); [15]): 0 | Plant response rating, Oat, Wild (wild oat (Avena fatua); [18]): 30 | Plant response rating, Oat, Wild (wild oat (Avena fatua); [19]): 40 | Plant response rating, Oat, Wild (wild oat (Avena fatua); [20]): 0 | Plant response rating, Oat, Wild (wild oat (Avena fatua); [21]): 0 | Plant response rating, Oat, Wild (wild oat (Avena fatua); [22]): 0 | Plant response rating, Ryegrass, Italian [7, 15]: 0 | Ryegrass, Italian plant response rating (0 to 100 scale) [7, 16]: 0 | Plant response rating, Ryegrass, Italian [7, 18]: 10 | Plant response rating, Ryegrass, Italian [7, 19]: 30 | Plant response rating, Ryegrass, Italian [7, 20]: 0 | Plant response rating, Ryegrass, Italian [7, 21]: 0 | Plant response rating, Ryegrass, Italian [7, 22]: 0 | Plant response rating, Corn (corn (Zea mays); [15]): 0 | Corn plant response rating (0 to 100 scale) (corn (Zea mays); [16]): 0 | Plant response rating, Corn (corn (Zea mays); [17]): 0 | Plant response rating, Corn (corn (Zea mays); [18]): 5 | Plant response rating, Corn (corn (Zea mays); [19]): 10 | Plant response rating, Corn (corn (Zea mays); [20]): 0 | Plant response rating, Corn (corn (Zea mays); [21]): 0 | Plant response rating, Corn (corn (Zea mays); [22]): 0 | Plant response rating, Surinam Grass [8, 15]: 75 | Surinam Grass plant response rating (0 to 100 scale) [8, 16]: 80 | Plant response rating, Surinam Grass [8, 18]: 80 | Plant response rating, Surinam Grass [8, 19]: 100 | Plant response rating, Surinam Grass [8, 20]: 45 | Plant response rating, Surinam Grass [8, 21]: 75 | Plant response rating, Surinam Grass [8, 22]: 75 | Plant response rating, Cupgrass, Woolly [9, 15]: 45 | Cupgrass, Woolly plant response rating (0 to 100 scale) [9, 16]: 45 | Plant response rating, Cupgrass, Woolly [9, 17]: 65 | Plant response rating, Cupgrass, Woolly [9, 18]: 50 | Plant response rating, Cupgrass, Woolly [9, 19]: 50 | Plant response rating, Cupgrass, Woolly [9, 20]: 0 | Plant response rating, Cupgrass, Woolly [9, 21]: 0 | Plant response rating, Cupgrass, Woolly [9, 22]: 45 | Plant response rating, Goosegrass [10, 15]: 60 | Goosegrass plant response rating (0 to 100 scale) [10, 16]: 65 | Plant response rating, Goosegrass [10, 17]: 100 | Plant response rating, Goosegrass [10, 18]: 65 | Plant response rating, Goosegrass [10, 19]: 70 | Plant response rating, Goosegrass [10, 20]: 60 | Plant response rating, Goosegrass [10, 21]: 98 | Plant response rating, Goosegrass [10, 22]: 100 | Plant response rating, Nutsedge, Yellow [11, 15]: 35 | Nutsedge, Yellow plant response rating (0 to 100 scale) [11, 16]: 65 | Plant response rating, Nutsedge, Yellow [11, 18]: 65 | Plant response rating, Nutsedge, Yellow [11, 19]: 75 | Plant response rating, Nutsedge, Yellow [11, 20]: 40 | Plant response rating, Nutsedge, Yellow [11, 21]: 70 | Plant response rating, Nutsedge, Yellow [11, 22]: 75 | Plant response rating, Soybean (soybean (Glycine max); [15]): 80 | Soybean plant response rating (0 to 100 scale) (soybean (Glycine max); [16]): 80 | Plant response rating, Soybean (soybean (Glycine max); [18]): 85 | Plant response rating, Soybean (soybean (Glycine max); [19]): 95 | Plant response rating, Crabgrass, Large [12, 15]: 75 | Crabgrass, Large plant response rating (0 to 100 scale) [12, 16]: 80 | Plant response rating, Crabgrass, Large [12, 17]: 100 | Plant response rating, Crabgrass, Large [12, 18]: 85 | Plant response rating, Crabgrass, Large [12, 19]: 90 | Plant response rating, Crabgrass, Large [12, 20]: 95 | Plant response rating, Crabgrass, Large [12, 21]: 100 | Plant response rating, Crabgrass, Large [12, 22]: 100 | Plant response rating, Ragweed [13, 15]: 75 | Ragweed plant response rating (0 to 100 scale) [13, 16]: 80 | Plant response rating, Ragweed [13, 18]: 90 | Plant response rating, Ragweed [13, 19]: 95 | Plant response rating, Ragweed [13, 20]: 55 | Plant response rating, Ragweed [13, 21]: 70 | Plant response rating, Ragweed [13, 22]: 80 | Plant response rating, Velvetleaf [14, 15]: 98 | Velvetleaf plant response rating (0 to 100 scale) [14, 16]: 100 | Plant response rating, Velvetleaf [14, 18]: 100 | Plant response rating, Velvetleaf [14, 19]: 100 | Plant response rating, Velvetleaf [14, 20]: 98 | Plant response rating, Velvetleaf [14, 21]: 100 | Plant response rating, Velvetleaf [14, 22]: 100
